Test: cn = amount concentration of the nth substance listed, in mol/dm3
Settings: 100 kPa, Liquid; for viscosity: Capillary tube (Ostwald / Ubbelohde) method; for mass density: Vibrating tube method

CCCCCCCCCCCCCCCC[N+](C)(C)C.[Br-] [N,N,N-trimethyl-1-hexadecanaminium bromide] + O
Settings	mass density, 298.15 K [kg/m3]	mass density, 308.15 K [kg/m3]	mass density, 318.15 K [kg/m3]	viscosity, 298.15 K [mPa·s]	viscosity, 308.15 K [mPa·s]	viscosity, 318.15 K [mPa·s]
c1 = 0.001	997.1	994.2	990.6	0.8978	0.7436	0.6173
c1 = 0.003	997.3	994.3	990.7	0.9087	0.7516	0.6217
c1 = 0.005	997.4	994.4	990.8	0.9213	0.7596	0.6349
